Experimental data: ChEMBL document CHEMBL1150524, “Two novel, potent and selective histamine H3 receptor agonists” (Bioorg Med Chem Lett, 1992)
Active and inactive are the calls of the source. The rule behind the calls is not given here.

Tests used:
Assay type in all cases: functional, tissue-based
Histamine H3 receptor = Histamine H3 receptor (Cavia porcellus, UniProt Q9JI35); test: Histamine H3 receptor agonist activity was assessed by the inhibition of the electrically evoked twitch response of the guinea-pig ileum.
Sequence of Histamine H3 receptor (Q9JI35 whole entry): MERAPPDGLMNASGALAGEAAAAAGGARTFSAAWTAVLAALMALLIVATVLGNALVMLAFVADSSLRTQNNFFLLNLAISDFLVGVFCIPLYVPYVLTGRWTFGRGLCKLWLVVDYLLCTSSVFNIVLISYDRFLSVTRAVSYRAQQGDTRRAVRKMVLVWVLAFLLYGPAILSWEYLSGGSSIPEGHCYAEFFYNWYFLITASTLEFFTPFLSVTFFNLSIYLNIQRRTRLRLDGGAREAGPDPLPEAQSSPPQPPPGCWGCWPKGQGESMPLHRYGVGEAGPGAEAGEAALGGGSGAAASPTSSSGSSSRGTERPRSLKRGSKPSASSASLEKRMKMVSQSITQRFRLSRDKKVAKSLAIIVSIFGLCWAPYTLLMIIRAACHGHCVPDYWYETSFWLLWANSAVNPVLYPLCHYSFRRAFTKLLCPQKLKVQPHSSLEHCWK

[1] = target: Histamine H1 receptor (Cavia porcellus) (UniProt P31389); test: Effect on histamine H1 receptor of the guinea-pig ileum, at 10e-5 M concentration; not significant
Sequence of Histamine H1 receptor (Cavia porcellus) (P31389 whole entry): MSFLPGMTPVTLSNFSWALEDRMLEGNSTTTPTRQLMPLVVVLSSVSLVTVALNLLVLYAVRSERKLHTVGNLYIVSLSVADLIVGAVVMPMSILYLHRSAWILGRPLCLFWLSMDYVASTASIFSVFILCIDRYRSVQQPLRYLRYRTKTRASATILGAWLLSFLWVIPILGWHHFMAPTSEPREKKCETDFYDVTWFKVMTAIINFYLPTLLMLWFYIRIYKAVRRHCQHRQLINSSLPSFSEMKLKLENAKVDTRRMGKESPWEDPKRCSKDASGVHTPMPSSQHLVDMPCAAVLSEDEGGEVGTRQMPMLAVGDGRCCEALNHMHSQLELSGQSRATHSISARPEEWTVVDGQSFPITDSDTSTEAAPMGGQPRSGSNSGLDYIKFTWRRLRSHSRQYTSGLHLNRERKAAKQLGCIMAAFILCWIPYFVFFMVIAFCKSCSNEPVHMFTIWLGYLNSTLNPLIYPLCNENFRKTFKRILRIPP

[2] = target: Histamine H2 receptor (Cavia porcellus) (UniProt P47747); test: Effect on histamine H2 receptor of the guinea-pig atrium, at 10e-5 M concentration; not significant; conditions: Cardiac atrium
Sequence of Histamine H2 receptor (Cavia porcellus) (P47747 whole entry): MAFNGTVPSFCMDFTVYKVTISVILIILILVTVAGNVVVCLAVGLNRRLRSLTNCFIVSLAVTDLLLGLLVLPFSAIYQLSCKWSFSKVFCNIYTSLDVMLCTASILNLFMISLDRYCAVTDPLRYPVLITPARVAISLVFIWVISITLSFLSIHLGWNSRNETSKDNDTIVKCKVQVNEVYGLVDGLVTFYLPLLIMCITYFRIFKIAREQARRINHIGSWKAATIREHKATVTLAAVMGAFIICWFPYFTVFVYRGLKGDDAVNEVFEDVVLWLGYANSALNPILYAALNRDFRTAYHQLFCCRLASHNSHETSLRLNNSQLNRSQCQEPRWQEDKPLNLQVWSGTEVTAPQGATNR

Structure (SMILES)	IC50 (Histamine H3 receptor)	Activity [1]	Activity [2]
N=C(N)SCCc1cnc[nH]1 [IMETIT]	4.6 nM	–	–
N=C(N)CCCc1c[nH]cn1	1.1 nM	inactive	inactive
N=C(N)SCCc1c[nH]cn1	–	inactive	inactive
